From patent US20070104644A1, “Inhibitor imaging agents” (priority 2003, published 2007) come the findings set out here.

The subject of data set [1] is ApoE −/− mice, carotid artery. Nature of the data set: Biodistribution in ApoE ligation model of atherosclerosis (ligated and sham). It is filed as in vivo. An excerpt:
ApoE −/− mice are transgenic knock-out mice, which lack the ApoE gene, and are therefore unable to regulate their plasma cholesterol levels. As a consequence ApoE mice develop atherosclerotic lesions, a process which is accelerated with feeding of high fat diet. Further acceleration of lesion development can be achieved by ligating the carotid artery, resulting in advanced lesion formation within 4 weeks of surgery and high fat diet feeding.
Two controls have been used for these experiments: (1) ApoE sham animals in which the mice undergo the same surgical intervention but the sture is only passed beneath the carotid and then removed and, (2) C57BL/6 ligtaed animals which undergo the same surgical ligation and high fat feeding as the ApoE ligated mice. Literature reports have stated that these animals do have some level of tissue remodelling, but with lower active MMP levels [Ivan et al, Circulation, 105, 2686-2691 (2002)].

In data set [2] the test system is Lewis lung carcinoma (LLC) tumour. In words: Biodistribution in LLC tumour model in vivo. Also noted: species or system C57BL/6 mice. The method, then: 1×10^6 Lewis lung carcinoma (LLC) cells are injected subcutaneously into right inner thigh of C57BL/6 mice. Tumours were allowed to grow for 15 days prior to biodistribution being carried out.
Biodistribution studies were performed in the LLC tumour model.
Biodistribution was performed in the LLC tumour model of Example 23 with Compounds 46B and 48B.

The target in data set [3] is MMP-9 (Homo sapiens, UniProt P14780). In words: MMP-9 colorimetric assay kit (Biomol AK-410). It is filed as biochemical. The method, then:
(§1) Compounds were screened using the following commercially available Biomol assay kits: • MMP-1 colorimetric assay kit—Catalogue number AK-404, • MMP-2 colorimetric assay kit—Catalogue number AK-408, • MMP-8 calorimetric assay kit—Catalogue number AK-414, • MMP-9 calorimetric assay kit—Catalogue number AK-410, • MMP-12 colorimetric assay kit—Catalogue number AK-402, Which are available from Affiniti Research Products Ltd. (Palatine House, Matford Court, Exeter, EX2 8NL, UK).
(§2) Inhibitors were provided in powdered form, and stored at 4° C. For each inhibitor a 1 mM stock solution in DMSO was prepared, dispensed into 20 μl aliquots and these aliquots stored at −20° C. The stock solution was diluted to give 8 inhibitor concentrations (recommended: 50 μM, 5 μM, 500 nM, 50 nM, 5 nM, 500 pM, 50 pM and 5 pM). Dilutions were made in the kit assay buffer. A five-fold dilution of the inhibitor stocks is made on addition to the assay wells, therefore final concentration range was from 10 μM to 1 pM.
(§3) Details are provided with the commercial kit, but can be summarised as follows: • Prepare test compound dilutions as above, • Add assay buffer to plate, • Add test compounds to plate • Prepare standard kit inhibitor NNGH (see kit for dilution factor) • Add NNGH to control inhibitor wells • Prepare MMP enzyme (see kit for dilution factor) • Add MMP to plate • Incubate plate at 37° C. for ˜15 min • Prepare thiopeptolide substrate (see kit for dilution factor) • Add substrate to plate • Count every 2 min for 1 hr, 37° C., 414 nm on a Labsystems iEMS plate reader (for MMP-1 count every 30 seconds for 20 minutes).

Data set [4] deals with T1, MMP-2 (Homo sapiens, UniProt P08253).
T1 sequence (P08253 110-660): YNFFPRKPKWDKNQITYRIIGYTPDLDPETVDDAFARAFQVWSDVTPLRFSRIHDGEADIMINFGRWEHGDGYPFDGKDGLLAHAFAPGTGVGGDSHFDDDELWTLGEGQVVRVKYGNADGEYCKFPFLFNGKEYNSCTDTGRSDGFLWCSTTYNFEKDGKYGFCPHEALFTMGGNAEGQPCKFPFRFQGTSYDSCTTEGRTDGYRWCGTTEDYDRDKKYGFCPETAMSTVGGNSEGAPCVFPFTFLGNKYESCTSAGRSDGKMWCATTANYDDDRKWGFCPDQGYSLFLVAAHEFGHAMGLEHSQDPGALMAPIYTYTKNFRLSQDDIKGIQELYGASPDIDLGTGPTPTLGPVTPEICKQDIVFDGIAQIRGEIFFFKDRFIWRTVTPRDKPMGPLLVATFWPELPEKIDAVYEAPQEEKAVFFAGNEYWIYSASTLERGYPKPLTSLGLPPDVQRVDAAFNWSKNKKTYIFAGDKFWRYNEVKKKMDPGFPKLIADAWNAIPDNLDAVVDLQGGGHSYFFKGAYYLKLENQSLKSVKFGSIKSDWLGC
In words: MMP-2 colorimetric assay kit (Biomol AK-408). In kind it is biochemical. Here is the method: as §1, §2, §3

Setting [5] is: ApoE Ligated, 5 min post injection.
The mark [6] stands for this setting: ApoE Ligated, 60 min post injection.
The mark [7] stands for this setting: ApoE Sham, 60 min post injection.

Chain of MMP-9 (P14780 94-707): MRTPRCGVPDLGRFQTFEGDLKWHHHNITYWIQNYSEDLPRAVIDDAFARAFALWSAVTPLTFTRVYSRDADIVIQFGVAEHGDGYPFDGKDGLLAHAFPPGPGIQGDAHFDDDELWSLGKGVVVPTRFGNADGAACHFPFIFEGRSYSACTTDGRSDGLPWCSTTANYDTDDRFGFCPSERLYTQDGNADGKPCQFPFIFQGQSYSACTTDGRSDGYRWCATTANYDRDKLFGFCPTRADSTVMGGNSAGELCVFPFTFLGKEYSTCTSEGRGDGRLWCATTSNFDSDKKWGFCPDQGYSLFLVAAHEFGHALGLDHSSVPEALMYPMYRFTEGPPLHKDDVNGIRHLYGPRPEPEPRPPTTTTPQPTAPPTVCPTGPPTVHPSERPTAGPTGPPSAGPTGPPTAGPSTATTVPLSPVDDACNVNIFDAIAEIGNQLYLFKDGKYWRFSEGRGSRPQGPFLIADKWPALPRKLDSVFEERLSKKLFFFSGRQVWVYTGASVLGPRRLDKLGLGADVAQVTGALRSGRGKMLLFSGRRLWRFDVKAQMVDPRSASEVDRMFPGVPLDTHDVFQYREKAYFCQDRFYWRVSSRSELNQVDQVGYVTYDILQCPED

Take `NC(=O)[C@H](Cc1ccc(O)c([123I])c1)NC(=O)CCOCCOCCOCCOCCOCCOCCOCCOCCOCCOCCOCCNC(=O)CCOCCOCCOCCOCCOCCOCCOCCOCCOCCOCCOCCNC(=O)CCN(C1(C(=O)NO)CCCC1)S(=O)(=O)c1ccc(Oc2ccc(F)cc2)cc1` [Compound 32A]: in data set [1] (setting [5]), the “% ID/G Carotid, mean” value came out at 10.32 % ID/G; the “Carotid/Blood, mean” value is on record as 0.46; the “Carotid/Heart, mean” value is on record as 1.39; the “Carotid/Lung, mean” value came out at 1.01. In data set [1] (setting [6]), the “% ID/G Carotid, mean” value was determined as 10.85 % ID/G; the “Carotid/Blood, mean” value is 1.21; the “Carotid/Heart, mean” value is listed as 3.94; the “Carotid/Lung, mean” value came to 1.45. Also, in data set [1] (setting [7]), the “% ID/G Carotid, mean” value worked out at 2.91 % ID/G; the “Carotid/Blood, mean” value was determined as 0.69; the “Carotid/Heart, mean” value was found to be 1.28; the “Carotid/Lung, mean” value was found to be 0.70. For the same compound, in data set [2], the “Blood clearance / retention” value is on record as “high initial blood retention, which cleared with time”; the “GI excretion” value was “low GI excretion”; the “Tumour uptake and retention” value was “Good tumour uptake and retention were seen up to 1 hour post injection”; the “Urinary excretion” value is listed as “High urinary excretion”. Moreover, in data set [2] (5 min post injection), the “% ID Urinary (urinary excretion), mean” value is 9.82 % ID; the “% ID/g Tumour, mean” value turned out to be 2.58 % ID/g; the “Tumour/Blood, mean” value amounted to 0.16; the “Tumour/Heart, mean” value was found to be 0.48. In addition, in data set [2] (5 min post injection), the “Tumour/Lung, mean” value was 0.30 and the “Tumour/Muscle, mean” value came out at 1.66. In data set [2] (30 min post injection), the “% ID Urinary (urinary excretion), mean” value stood at 35.20 % ID; the “% ID/g Tumour, mean” value came to 2.67 % ID/g; the “Tumour/Blood, mean” value came to 0.26; the “Tumour/Heart, mean” value is recorded as 0.75. Besides, in data set [2] (30 min post injection), the “Tumour/Lung, mean” value is reported as 0.43 and the “Tumour/Muscle, mean” value stood at 2.80. In addition, in data set [2] (60 min post injection), the “% ID Urinary (urinary excretion), mean” value was found to be 54.06 % ID; the “% ID/g Tumour, mean” value is recorded as 2.03 % ID/g; the “Tumour/Blood, mean” value was 0.43; the “Tumour/Heart, mean” value stood at 1.31. Also, in data set [2] (60 min post injection), the “Tumour/Lung, mean” value came to 0.69 and the “Tumour/Muscle, mean” value was found to be 4.88. Further, in data set [2] (120 min post injection), the “% ID Urinary (urinary excretion), mean” value is listed as 64.10 % ID; the “% ID/g Tumour, mean” value is 1.34 % ID/g; the “Tumour/Blood, mean” value is given as 0.53; the “Tumour/Heart, mean” value amounted to 1.54. Further, in data set [2] (120 min post injection), the “Tumour/Lung, mean” value was 0.55 and the “Tumour/Muscle, mean” value was determined as 3.92.
In general, Ki refers to the equilibrium dissociation constant of an inhibitor or competing ligand from its target. The low end stands for higher affinity, the high end for lower affinity. For `NCCCC[C@H](NC(=O)CCN(C1(C(=O)NO)CCCC1)S(=O)(=O)c1ccc(Oc2ccc(F)cc2)cc1)C(=O)N[C@@H](CCCCN)C(=O)N[C@@H](CCCCN)C(=O)N[C@@H](CCCCN)C(=O)N[C@@H](CCCCN)C(=O)NCCOCCOCCOCCNC(=O)COCC(=O)N[C@@H](Cc1ccc(O)c(I)c1)C(N)=O` [Compound 42], the Ki was found to be 585 pM in data set [3] and 2190 pM in data set [4].
For `NC(=O)[C@H](Cc1ccc(O)c(I)c1)NC(=O)CCOCCOCCOCCOCCOCCOCCOCCOCCOCCOCCOCCNC(=O)CCN(C1(C(=O)NO)CCCC1)S(=O)(=O)c1ccc(Oc2ccc(F)cc2)cc1` [Compound 44], the Ki in data set [3] was determined as 76 pM; in data set [4], 250 pM.
For `NC(=O)[C@H](CCCCNC(=O)CON=Cc1ccc([18F])cc1)NC(=O)CCN(C1(C(=O)NO)CCCC1)S(=O)(=O)c1ccc(Oc2ccc(F)cc2)cc1` [Compound 46B], in data set [1] (setting [5]), the “% ID/G Carotid, mean” value is reported as 0.88 % ID/G; the “Carotid/Blood, mean” value amounted to 0.42; the “Carotid/Heart, mean” value was determined as 0.49; the “Carotid/Lung, mean” value stood at 0.35. Further, in data set [1] (setting [6]), the “% ID/G Carotid, mean” value came to 0.44 % ID/G; the “Carotid/Blood, mean” value is reported as 0.61; the “Carotid/Heart, mean” value was found to be 1.11; the “Carotid/Lung, mean” value stood at 0.53. Also, in data set [2] (5 min post injection), the “% ID Urinary (urinary excretion), mean” value came to 6.60 % ID; the “% ID/g Tumour, mean” value is on record as 0.42 % ID/g; the “Tumour/Blood, mean” value was 0.18; the “Tumour/Heart, mean” value is on record as 0.37. In addition, in data set [2] (5 min post injection), the “Tumour/Lung, mean” value came out at 0.21 and the “Tumour/Muscle, mean” value came to 1.16. Moreover, in data set [2] (30 min post injection), the “% ID Urinary (urinary excretion), mean” value is recorded as 12.00 % ID; the “% ID/g Tumour, mean” value was 0.53 % ID/g; the “Tumour/Blood, mean” value amounted to 0.47; the “Tumour/Heart, mean” value came to 1.15. Moreover, in data set [2] (30 min post injection), the “Tumour/Lung, mean” value amounted to 0.55 and the “Tumour/Muscle, mean” value was determined as 2.06. In data set [2] (60 min post injection), the “% ID Urinary (urinary excretion), mean” value is 15.02 % ID; the “% ID/g Tumour, mean” value is recorded as 0.32 % ID/g; the “Tumour/Blood, mean” value is 0.73; the “Tumour/Heart, mean” value stood at 1.54. Further, in data set [2] (60 min post injection), the “Tumour/Lung, mean” value came out at 0.60 and the “Tumour/Muscle, mean” value is listed as 2.02. In addition, in data set [2] (120 min post injection), the “% ID Urinary (urinary excretion), mean” value was found to be 19.68 % ID; the “% ID/g Tumour, mean” value is listed as 0.31 % ID/g; the “Tumour/Blood, mean” value was found to be 0.73; the “Tumour/Heart, mean” value is listed as 1.33. In data set [2] (120 min post injection), the “Tumour/Lung, mean” value was determined as 0.80 and the “Tumour/Muscle, mean” value worked out at 1.81.
Turning to `NC(=O)[C@H](CCCCNC(=O)CON=Cc1ccc([18F])cc1)NC(=O)CCOCCOCCOCCOCCOCCOCCOCCOCCOCCOCCOCCNC(=O)CCOCCOCCOCCOCCOCCOCCOCCOCCOCCOCCOCCNC(=O)CCN(C1(C(=O)NO)CCCC1)S(=O)(=O)c1ccc(Oc2ccc(F)cc2)cc1` [Compound 48B], in data set [1] (setting [5]), the “% ID/G Carotid, mean” value turned out to be 12.01 % ID/G; the “Carotid/Blood, mean” value came to 0.40; the “Carotid/Heart, mean” value amounted to 1.27; the “Carotid/Lung, mean” value stood at 0.75. In data set [1] (setting [6]), the “% ID/G Carotid, mean” value is on record as 10.34 % ID/G; the “Carotid/Blood, mean” value stood at 0.96; the “Carotid/Heart, mean” value is on record as 2.71; the “Carotid/Lung, mean” value is 1.42. Further, in data set [1] (setting [7]), the “% ID/G Carotid, mean” value was found to be 2.37 % ID/G; the “Carotid/Blood, mean” value came to 0.2; the “Carotid/Heart, mean” value is reported as 0.81; the “Carotid/Lung, mean” value was 0.25. In data set [2] (5 min post injection), the “% ID Urinary (urinary excretion), mean” value came to 0.24 % ID; the “% ID/g Tumour, mean” value is given as 2.53 % ID/g; the “Tumour/Blood, mean” value is 0.11; the “Tumour/Heart, mean” value is on record as 0.40. In data set [2] (5 min post injection), the “Tumour/Lung, mean” value turned out to be 0.26 and the “Tumour/Muscle, mean” value was found to be 1.55. Besides, in data set [2] (30 min post injection), the “% ID Urinary (urinary excretion), mean” value was 15.29 % ID; the “% ID/g Tumour, mean” value was 2.33 % ID/g; the “Tumour/Blood, mean” value amounted to 0.24; the “Tumour/Heart, mean” value is reported as 0.84. Moreover, in data set [2] (30 min post injection), the “Tumour/Lung, mean” value worked out at 0.47 and the “Tumour/Muscle, mean” value came out at 2.92. Also, in data set [2] (60 min post injection), the “% ID Urinary (urinary excretion), mean” value amounted to 56.89 % ID; the “% ID/g Tumour, mean” value is 1.81 % ID/g; the “Tumour/Blood, mean” value was found to be 0.51; the “Tumour/Heart, mean” value is reported as 1.69. Further, in data set [2] (60 min post injection), the “Tumour/Lung, mean” value was 0.95 and the “Tumour/Muscle, mean” value was found to be 4.40. In data set [2] (120 min post injection), the “% ID Urinary (urinary excretion), mean” value worked out at 59.33 % ID; the “% ID/g Tumour, mean” value is 1.62 % ID/g; the “Tumour/Blood, mean” value stood at 0.41; the “Tumour/Heart, mean” value is 1.52. For the same compound, in data set [2] (120 min post injection), the “Tumour/Lung, mean” value was determined as 0.77 and the “Tumour/Muscle, mean” value was found to be 3.55.
